The values below come from patent US7589109B2, “Oxyindole derivatives” (Pfizer Inc, priority 2005, dated 2009).

Series [1] has as its target T1, 5-HT4 receptors in the rat esophagus (Rattus norvegicus, UniProt Q62758).
T1 construct: The remaining inner tube of smooth muscle was known as the TMM; tissue Charles River (animals); host or cells: rat esophagus tunica muscularis mucosae (TMM) smooth muscle, organ bath
The series can be described thus: TMM functional assay. The following applies: 1 μM antagonist added to bath; carbachol-contracted rat TMM relaxed by 5-HT. The source says: More specifically, partial agonist activity can be measured according to the following procedures.
Male SD rats (Charles River) weighing 250-350 g were stunned and then killed by cervical dislocation. The esophagus was dissected from immediately proximal to the stomach (including piece of stomach to mark distal end) up to the level of the trachea and then placed in fresh Krebs' solution.
The outer skeletal muscle layer was removed in one go by peeling it away from the underlying smooth muscle layer using forceps (stomach to tracheal direction). The remaining inner tube of smooth muscle was known as the TMM. This was trimmed to 2 cm from the original ‘stomach-end’ and the rest discarded.
The TMMs were mounted as whole ‘open’ tubes in longitudinal orientation in 5 ml organ baths filled with warm (32° C.) aerated Krebs. Tissues were placed under an initial tension of 750 mg and allowed to equilibrate for 60 minutes. The tissues were re-tensioned twice at 15 minute intervals during the equilibration period. The pump flow rate was set to 2 ml/min during this time.
Following equilibration, the pump was switched off. The tissues were exposed to 1 μM carbachol and contracted and reached a steady contractile plateau within 15 minutes. Tissues were then subject to 1 μM 5-HT (this was to prime the tissues). The tissues relaxed in response to 5-HT fairly rapidly—within 1 minute. […]

For orientation: melting point means the temperature, or range, at which the solid turns liquid.

Structures are written as SMILES.

T1 sequence (Q62758 whole entry): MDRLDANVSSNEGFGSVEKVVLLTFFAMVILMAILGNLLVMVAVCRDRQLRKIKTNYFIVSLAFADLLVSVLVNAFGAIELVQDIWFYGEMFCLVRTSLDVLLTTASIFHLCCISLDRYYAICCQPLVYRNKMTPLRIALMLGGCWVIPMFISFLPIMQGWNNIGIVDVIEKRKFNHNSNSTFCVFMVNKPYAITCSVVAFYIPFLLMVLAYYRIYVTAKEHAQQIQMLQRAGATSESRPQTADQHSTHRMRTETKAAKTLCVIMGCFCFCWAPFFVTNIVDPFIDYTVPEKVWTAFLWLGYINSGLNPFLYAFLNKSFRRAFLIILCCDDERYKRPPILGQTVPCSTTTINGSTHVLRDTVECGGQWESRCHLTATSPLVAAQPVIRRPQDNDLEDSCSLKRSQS

In turn, `CC(C)(CN1CCC(F)(CNC(=O)N2C(=O)C(C)(C)c3ccc(F)cc32)CC1)C(=O)O` gave a melting point of 176 °C.
As to `CC1(C)C(=O)N(C(=O)NCC2CCN(CC3(C(=O)O)CCC3)CC2)c2ccccc21`, the melting point was 170.9 °C.
Compound `O=C(NCC1CCN(CC2(C(=O)O)CCCCC2)CC1)N1C(=O)C2(CCCC2)c2ccccc21` showed a melting point of 160.4 °C.
The compound `O=C(NCC1CCN(CC2(C(=O)O)CCCC2)CC1)N1C(=O)C2(CCCC2)c2ccccc21` yielded a melting point of 188.1 °C.
For the compound `O=C(OCCN1CCCCC1)c1c[nH]c2ccccc12` [SB 203,186, 1H-Indole-3-carboxylic acid, 2-(1-piperidinyl)ethyl ester], the “reversal of agonist-induced relaxation” value in series [1] is “reversed 5-HT induced relaxation”.
As to `O=C(NCC1CCN(CC2(C(=O)O)CCOCC2)CC1)N1C(=O)C2(CCCC2)c2ccc(F)cc21`, the melting point amounted to 161.3 °C.
Turning to `CC(C)(CN1CCC(CNC(=O)N2C(=O)C(C)(C)c3ccccc32)CC1)C(=O)O`, the melting point was determined as 164.5 °C.
On to `CC(C)(CN1CCC(F)(CNC(=O)N2C(=O)C(C)(C)c3ccccc32)CC1)C(=O)O`, for which the melting point came to 156 °C.
With `O=C(NCC1CCN(CC2(C(=O)O)CCC2)CC1)N1C(=O)C2(CCCC2)c2ccc(F)cc21`, the melting point came to 150.3 °C.
On the same count and under the same terms, then `O=C(NCC1CCN(CC2(C(=O)O)CC2)CC1)N1C(=O)C2(CCCC2)c2ccccc21`, with 186.5 °C; and `CC1(C)C(=O)N(C(=O)NCC2(O)CCN(CC3(C(=O)O)CCC3)CC2)c2cc(F)ccc21`, with 159 °C; and `O=C(NCC1CCN(CC2(C(=O)O)CCOCC2)CC1)N1C(=O)C2(CCCC2)c2ccccc21`, with 146.3 °C.
In turn, `CC1(C)C(=O)N(C(=O)NCC2CCN(CC3(C(=O)O)CCC3)CC2)c2cc(F)ccc21` yielded a melting point of 193 °C.
Still for that read-out and setting: then `CC1(C)C(=O)N(C(=O)NCC2CCN(C(C)(C)C(=O)O)CC2)c2cc(F)ccc21`, with 213 °C.
On to `CC(C)(CN1CCC(CNC(=O)N2C(=O)C3(CCCC3)c3ccccc32)CC1)C(=O)O`, for which the melting point was 189.1 °C.
`O=C(NCC1CCN(CC2(C(=O)O)CCC2)CC1)N1C(=O)C2(CCCC2)c2ccccc21` displayed a melting point of 171 °C.
The same measure, in the same setting: then `CC(C)(CN1CCC(CNC(=O)N2C(=O)C(C)(C)c3ccc(F)cc32)CC1)C(=O)O`, with 134 °C.
